Laboratory results as given in PubChem BioAssay AID1963842 (Molecular Pharmacology Branch, DTP, NCI, 2024).

Tested on: 677734-321-R-J1-PDC complex spheroid viability
Assay: Anticancer human tumor 677734-321-R-J1-PDC patient-derived soft tissue sarcoma cell line growth inhibition [POLQ]
Conditions: for IC50: curve of first compound; for viability, T/C: stronger effect = lower value
Outline: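 Complex spheroid viability model combining PDC tumour cells with endothelial (HUVEC) and MSC stromal cells. Novobiocin, ART-558 or RP6685 were tested singly and in combination with standard and investigational anticancer drugs. Each was titrated in half-log steps from near clinical Cmax, or from 10 microM where Cmax was unknown.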

[1] = second compound 0.0316 µM, first compound 0.00316 µM
[2] = second compound 0.0316 µM, first compound 0.01 µM
[3] = second compound 0.0316 µM, first compound 0.0316 µM
[4] = second compound 0.0316 µM, first compound 0.1 µM
[5] = second compound 0.0316 µM, first compound 0.316 µM
[6] = second compound 0.0316 µM, first compound 1 µM
[7] = second compound 0.1 µM, first compound 0.00316 µM
[8] = second compound 0.1 µM, first compound 0.01 µM
[9] = second compound 0.1 µM, first compound 0.0316 µM
[10] = second compound 0.1 µM, first compound 0.1 µM
[11] = second compound 0.1 µM, first compound 0.316 µM
[12] = second compound 0.1 µM, first compound 1 µM
[13] = second compound 0.316 µM, first compound 0.00316 µM
[14] = second compound 0.316 µM, first compound 0.01 µM
[15] = second compound 0.316 µM, first compound 0.0316 µM
[16] = second compound 0.316 µM, first compound 0.1 µM
[17] = second compound 0.316 µM, first compound 0.316 µM
[18] = second compound 0.316 µM, first compound 1 µM
[19] = second compound 1 µM, first compound 0.00316 µM
[20] = second compound 1 µM, first compound 0.01 µM
[21] = second compound 1 µM, first compound 0.0316 µM
[22] = second compound 1 µM, first compound 0.1 µM
[23] = second compound 1 µM, first compound 0.316 µM
[24] = second compound 1 µM, first compound 1 µM
[25] = second compound 3.16 µM, first compound 0.00316 µM
[26] = second compound 3.16 µM, first compound 0.01 µM
[27] = second compound 3.16 µM, first compound 0.0316 µM
[28] = second compound 3.16 µM, first compound 0.1 µM
[29] = second compound 3.16 µM, first compound 0.316 µM
[30] = second compound 3.16 µM, first compound 1 µM
[31] = second compound 10 µM, first compound 0.00316 µM
[32] = second compound 10 µM, first compound 0.01 µM
[33] = second compound 10 µM, first compound 0.0316 µM
[34] = second compound 10 µM, first compound 0.1 µM
[35] = second compound 10 µM, first compound 0.316 µM
[36] = second compound 10 µM, first compound 1 µM
[37] = second compound 0.0316 µM, first compound 3.16 µM
[38] = second compound 0.0316 µM, first compound 10 µM
[39] = second compound 0.1 µM, first compound 3.16 µM
[40] = second compound 0.1 µM, first compound 10 µM
[41] = second compound 0.316 µM, first compound 3.16 µM
[42] = second compound 0.316 µM, first compound 10 µM
[43] = second compound 1 µM, first compound 3.16 µM
[44] = second compound 1 µM, first compound 10 µM
[45] = second compound 3.16 µM, first compound 3.16 µM
[46] = second compound 3.16 µM, first compound 10 µM
[47] = second compound 10 µM, first compound 3.16 µM
[48] = second compound 10 µM, first compound 10 µM
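Further: spheroids exposed to compounds for one week.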
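Wherever viability, T/C is given: 100% = vehicle DMSO treated spheroids.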

C=CCn1c(=O)c2cnc(Nc3ccc(N4CCN(C)CC4)cc3)nc2n1-c1cccc(C(C)(C)O)n1 + Nc1ccc(C#CCN(C(=O)Cc2ncc(C(F)(F)F)cc2C(F)(F)F)c2ccc(F)cc2)nn1
IC50 (second compound 0.0316 µM): 727 nM | IC50 (second compound 0.1 µM): 682 nM | IC50 (second compound 0.316 µM): 664 nM | IC50 (second compound 1 µM): 644 nM | IC50 (second compound 3.16 µM): 496 nM | IC50 (second compound 10 µM): 805 nM | viability, T/C [1]: 114% | viability, T/C [2]: 107% | viability, T/C [3]: 102% | viability, T/C [4]: 102% | viability, T/C [5]: 84.1% | viability, T/C [6]: 36.7% | viability, T/C [7]: 107% | viability, T/C [8]: 111% | viability, T/C [9]: 122% | viability, T/C [10]: 97.2% | viability, T/C [11]: 80.8% | viability, T/C [12]: 35.1% | viability, T/C [13]: 119% | viability, T/C [14]: 102% | viability, T/C [15]: 110% | viability, T/C [16]: 104% | viability, T/C [17]: 81.1% | viability, T/C [18]: 32.5% | viability, T/C [19]: 106% | viability, T/C [20]: 102% | viability, T/C [21]: 112% | viability, T/C [22]: 93.2% | viability, T/C [23]: 85.4% | viability, T/C [24]: 29.3% | viability, T/C [25]: 114% | viability, T/C [26]: 96.3% | viability, T/C [27]: 103% | viability, T/C [28]: 104% | viability, T/C [29]: 59% | viability, T/C [30]: 35.9% | viability, T/C [31]: 116% | viability, T/C [32]: 113% | viability, T/C [33]: 108% | viability, T/C [34]: 97.1% | viability, T/C [35]: 74.6% | viability, T/C [36]: 44.2%

CCc1cc2c(N3CCc4c(cc(Cn5ccnc5)cc4-c4cn(C)nc4C(F)(F)F)C3=O)cc(C)nc2c(OC)n1 + COC1C(OC(N)=O)C(O)C(Oc2ccc3c(O)c(NC(=O)c4ccc(O)c(CC=C(C)C)c4)c(=O)oc3c2C)OC1(C)C
IC50 (second compound 0.0316 µM): > 10000 nM | IC50 (second compound 0.1 µM): > 10000 nM | IC50 (second compound 0.316 µM): > 10000 nM | IC50 (second compound 1 µM): > 10000 nM | IC50 (second compound 3.16 µM): > 10000 nM | IC50 (second compound 10 µM): > 10000 nM | viability, T/C [3]: 111% | viability, T/C [4]: 110% | viability, T/C [5]: 94.5% | viability, T/C [6]: 98.2% | viability, T/C [37]: 77.7% | viability, T/C [38]: 53.4% | viability, T/C [9]: 106% | viability, T/C [10]: 111% | viability, T/C [11]: 97.7% | viability, T/C [12]: 98.8% | viability, T/C [39]: 73.7% | viability, T/C [40]: 59.3% | viability, T/C [15]: 112% | viability, T/C [16]: 108% | viability, T/C [17]: 98.7% | viability, T/C [18]: 96.9% | viability, T/C [41]: 79.5% | viability, T/C [42]: 49.4% | viability, T/C [21]: 124% | viability, T/C [22]: 105% | viability, T/C [23]: 108% | viability, T/C [24]: 93.4% | viability, T/C [43]: 75.5% | viability, T/C [44]: 52.9% | viability, T/C [27]: 109% | viability, T/C [28]: 111% | viability, T/C [29]: 103% | viability, T/C [30]: 98.2% | viability, T/C [45]: 82% | viability, T/C [46]: 54.4% | viability, T/C [33]: 108% | viability, T/C [34]: 110% | viability, T/C [35]: 98.4% | viability, T/C [36]: 91.4% | viability, T/C [47]: 67.3% | viability, T/C [48]: 50.8%

COc1cccc(OCCCN)c1-c1cc(Nc2cnc(C#N)cn2)n[nH]1 + Nc1ccc(C#CCN(C(=O)Cc2ncc(C(F)(F)F)cc2C(F)(F)F)c2ccc(F)cc2)nn1
IC50 (second compound 0.0316 µM): 6.21 nM | IC50 (second compound 0.1 µM): 4.6 nM | IC50 (second compound 0.316 µM): 5.33 nM | IC50 (second compound 1 µM): 6.15 nM | IC50 (second compound 3.16 µM): 4.93 nM | IC50 (second compound 10 µM): 3.71 nM | viability, T/C [1]: 101% | viability, T/C [2]: 13.8% | viability, T/C [3]: 5.82% | viability, T/C [4]: 6.83% | viability, T/C [5]: 7.28% | viability, T/C [6]: 5.14% | viability, T/C [7]: 67.2% | viability, T/C [8]: 14.3% | viability, T/C [9]: 6.58% | viability, T/C [10]: 6.56% | viability, T/C [11]: 8.96% | viability, T/C [12]: 3.87% | viability, T/C [13]: 77% | viability, T/C [14]: 17.7% | viability, T/C [15]: 5.86% | viability, T/C [16]: 9.23% | viability, T/C [17]: 6.18% | viability, T/C [18]: 5.17% | viability, T/C [19]: 83.6% | viability, T/C [20]: 25.5% | viability, T/C [21]: 6% | viability, T/C [22]: 6.97% | viability, T/C [23]: 6.56% | viability, T/C [24]: 5.02% | viability, T/C [25]: 72.7% | viability, T/C [26]: 13.8% | viability, T/C [27]: 9% | viability, T/C [28]: 6.22% | viability, T/C [29]: 7.97% | viability, T/C [30]: 5.64% | viability, T/C [31]: 56.6% | viability, T/C [32]: 9.16% | viability, T/C [33]: 6.91% | viability, T/C [34]: 7.72% | viability, T/C [35]: 6.82% | viability, T/C [36]: 5.03%

Nc1ccn(C2OC(CO)C(O)C2(F)F)c(=O)n1 (stereo not drawn) + Cc1cccc(N(C)C(=O)C2C(O)CCN2c2nc(C)cc(C(F)(F)F)c2C#N)c1
IC50 (second compound 0.0316 µM): < 31.6 nM | IC50 (second compound 0.1 µM): < 31.6 nM | IC50 (second compound 0.316 µM): < 31.6 nM | IC50 (second compound 1 µM): < 31.6 nM | IC50 (second compound 3.16 µM): < 31.6 nM | IC50 (second compound 10 µM): < 31.6 nM | viability, T/C [3]: 38.5% | viability, T/C [4]: 15.2% | viability, T/C [5]: 14.2% | viability, T/C [6]: 14.7% | viability, T/C [37]: 14.9% | viability, T/C [38]: 10.1% | viability, T/C [9]: 43.5% | viability, T/C [10]: 15.1% | viability, T/C [11]: 13.7% | viability, T/C [12]: 15.4% | viability, T/C [39]: 15.8% | viability, T/C [40]: 11% | viability, T/C [15]: 31.8% | viability, T/C [16]: 22% | viability, T/C [17]: 14.1% | viability, T/C [18]: 16.9% | viability, T/C [41]: 12.4% | viability, T/C [42]: 10.8% | viability, T/C [21]: 30.9% | viability, T/C [22]: 18.4% | viability, T/C [23]: 14.3% | viability, T/C [24]: 15.4% | viability, T/C [43]: 19.6% | viability, T/C [44]: 12% | viability, T/C [27]: 35.2% | viability, T/C [28]: 14.9% | viability, T/C [29]: 14.6% | viability, T/C [30]: 13.5% | viability, T/C [45]: 13.3% | viability, T/C [46]: 13% | viability, T/C [33]: 39.8% | viability, T/C [34]: 17.3% | viability, T/C [35]: 15.3% | viability, T/C [36]: 13.7% | viability, T/C [47]: 13.3% | viability, T/C [48]: 12.2%
